What was measured:
[1] = target: T1, PI 3-kinase delta (Homo sapiens, UniProt O00329); assay: TR-FRET Adapta assay, assay F; settings: read-out: Assay F PI3Kδ IC50
Target sequence in this assay (O00329 whole entry): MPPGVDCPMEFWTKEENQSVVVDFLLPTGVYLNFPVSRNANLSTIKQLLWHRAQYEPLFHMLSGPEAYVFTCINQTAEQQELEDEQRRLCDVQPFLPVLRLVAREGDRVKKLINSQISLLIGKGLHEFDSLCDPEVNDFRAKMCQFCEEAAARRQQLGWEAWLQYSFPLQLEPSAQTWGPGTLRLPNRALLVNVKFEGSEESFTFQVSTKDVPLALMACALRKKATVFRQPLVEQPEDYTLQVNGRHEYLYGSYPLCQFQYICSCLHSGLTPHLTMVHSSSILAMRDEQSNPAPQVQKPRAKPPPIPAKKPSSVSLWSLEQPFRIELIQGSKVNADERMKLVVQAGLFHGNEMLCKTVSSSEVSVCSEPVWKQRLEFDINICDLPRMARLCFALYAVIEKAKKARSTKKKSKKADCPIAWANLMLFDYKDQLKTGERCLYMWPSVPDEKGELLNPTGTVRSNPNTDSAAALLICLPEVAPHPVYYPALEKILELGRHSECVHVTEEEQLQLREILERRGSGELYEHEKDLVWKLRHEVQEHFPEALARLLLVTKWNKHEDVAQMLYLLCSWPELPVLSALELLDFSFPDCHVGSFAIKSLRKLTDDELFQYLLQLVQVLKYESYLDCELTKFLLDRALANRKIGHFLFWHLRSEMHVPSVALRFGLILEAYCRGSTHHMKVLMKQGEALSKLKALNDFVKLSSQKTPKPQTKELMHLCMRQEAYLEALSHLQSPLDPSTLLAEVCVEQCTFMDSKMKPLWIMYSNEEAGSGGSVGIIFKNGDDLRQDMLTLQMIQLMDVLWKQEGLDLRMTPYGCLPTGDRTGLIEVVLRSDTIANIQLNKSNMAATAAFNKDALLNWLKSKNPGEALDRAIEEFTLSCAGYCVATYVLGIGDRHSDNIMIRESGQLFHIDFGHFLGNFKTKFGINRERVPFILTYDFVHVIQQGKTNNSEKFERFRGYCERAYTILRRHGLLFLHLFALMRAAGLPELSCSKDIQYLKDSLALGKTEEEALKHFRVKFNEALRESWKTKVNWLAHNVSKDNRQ
Target sequence in this assay (P27986 461-568 partner): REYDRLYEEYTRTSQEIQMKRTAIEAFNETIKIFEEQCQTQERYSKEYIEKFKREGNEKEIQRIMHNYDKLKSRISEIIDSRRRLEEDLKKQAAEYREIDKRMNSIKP

[2] = Microsomal clearance assay (M); settings: intrinsic clearance in rat liver microsomes
Protocol: The experiments were performed in 96-well glass plates at 37° C. on an automated Tecan EVO platform. Test compounds at a concentration of 10 mM in pure DMSO were diluted 1:1000 in water to 10 μM. […] Reactions were initiated by the addition of 150 μL of a cofactor solution containing 2 mM NADPH.

[3] = target: PI 3-kinase gamma (Homo sapiens, UniProt P48736); assay: TR-FRET Adapta assay, assay E; format: biochemical; settings: read-out: Assay E PI3Kγ IC50
[4] = target: T2, PI 3-kinase beta (Homo sapiens, UniProt P42338); assay: Cellular assay I1, p-Akt (S473) in Rat-1 cells, Surefire format; format: cell-based; settings: non-asterisked data: version I1 (Surefire format), Rat-1 cells; read-out: Assay I PI3Kβ IC50
Target sequence in this assay (P42338 whole entry): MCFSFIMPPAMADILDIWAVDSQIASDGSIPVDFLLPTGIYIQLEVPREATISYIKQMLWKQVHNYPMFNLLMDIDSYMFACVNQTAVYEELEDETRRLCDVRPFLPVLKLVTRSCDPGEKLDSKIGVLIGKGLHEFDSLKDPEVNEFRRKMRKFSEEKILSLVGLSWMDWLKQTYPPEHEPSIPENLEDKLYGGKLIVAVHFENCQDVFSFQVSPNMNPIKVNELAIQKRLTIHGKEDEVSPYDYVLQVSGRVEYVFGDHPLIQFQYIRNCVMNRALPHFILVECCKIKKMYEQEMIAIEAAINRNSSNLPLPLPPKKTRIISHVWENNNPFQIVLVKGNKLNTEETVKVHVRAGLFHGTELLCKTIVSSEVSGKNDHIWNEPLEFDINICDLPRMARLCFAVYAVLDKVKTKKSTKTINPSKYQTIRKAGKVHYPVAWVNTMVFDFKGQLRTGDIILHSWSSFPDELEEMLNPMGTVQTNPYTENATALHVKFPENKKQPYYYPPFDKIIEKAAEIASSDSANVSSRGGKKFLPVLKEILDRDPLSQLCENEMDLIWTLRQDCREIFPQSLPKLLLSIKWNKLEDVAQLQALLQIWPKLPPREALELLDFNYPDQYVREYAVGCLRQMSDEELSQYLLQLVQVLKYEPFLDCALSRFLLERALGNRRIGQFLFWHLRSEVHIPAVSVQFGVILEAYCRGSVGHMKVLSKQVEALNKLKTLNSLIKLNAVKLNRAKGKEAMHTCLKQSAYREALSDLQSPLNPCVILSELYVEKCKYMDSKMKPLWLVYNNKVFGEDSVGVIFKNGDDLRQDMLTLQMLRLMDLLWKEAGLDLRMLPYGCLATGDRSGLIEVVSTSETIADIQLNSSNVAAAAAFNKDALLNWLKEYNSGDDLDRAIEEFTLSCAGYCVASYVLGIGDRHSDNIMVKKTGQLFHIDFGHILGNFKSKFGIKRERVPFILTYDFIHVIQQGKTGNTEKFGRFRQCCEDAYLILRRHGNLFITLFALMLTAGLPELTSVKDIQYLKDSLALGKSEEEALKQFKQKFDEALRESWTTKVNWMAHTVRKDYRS
Target sequence in this assay (Q63787 whole entry partner): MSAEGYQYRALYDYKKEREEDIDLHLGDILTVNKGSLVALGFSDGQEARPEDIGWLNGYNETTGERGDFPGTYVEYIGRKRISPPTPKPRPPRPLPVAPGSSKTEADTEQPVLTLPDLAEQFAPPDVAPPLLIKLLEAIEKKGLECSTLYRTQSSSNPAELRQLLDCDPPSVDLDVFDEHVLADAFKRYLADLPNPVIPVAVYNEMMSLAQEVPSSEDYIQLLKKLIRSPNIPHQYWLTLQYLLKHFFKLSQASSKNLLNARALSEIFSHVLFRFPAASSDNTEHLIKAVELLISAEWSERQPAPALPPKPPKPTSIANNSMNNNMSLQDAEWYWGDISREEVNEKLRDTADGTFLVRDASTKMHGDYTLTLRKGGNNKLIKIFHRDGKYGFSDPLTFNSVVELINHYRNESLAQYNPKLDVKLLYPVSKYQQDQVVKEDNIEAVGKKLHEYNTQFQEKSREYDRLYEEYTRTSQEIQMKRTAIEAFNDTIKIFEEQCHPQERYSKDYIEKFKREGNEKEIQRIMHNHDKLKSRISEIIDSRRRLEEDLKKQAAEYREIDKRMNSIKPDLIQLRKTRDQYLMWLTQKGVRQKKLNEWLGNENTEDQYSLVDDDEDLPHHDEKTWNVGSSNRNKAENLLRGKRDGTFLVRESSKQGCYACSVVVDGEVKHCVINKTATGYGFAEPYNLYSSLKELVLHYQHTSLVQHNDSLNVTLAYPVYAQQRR
Description: Cellular Assays for PI 3-Kinase Alpha (H1), Beta (I1) and Delta (J1): Surefire Format
AlphaScreen (Amplified Luminescent Proximity Homogeneous Assay, ALPHA, Perkin Elmer) is a non-radioactive bead-based proximity assay technology to study biomolecular interactions in a homogenous microtiter plate format. The brand name SureFire denotes AlphaScreen assays that are adapted to quantify the phosphorylation of endogenous cellular proteins in cell lysates, by using matched antibody pairs, which consist of an anti-phospho-kinase and an anti-kinase antibody. The assay allows characterization of kinase signaling in cells as well as measurement of kinase inhibitor effects.
Using Rat-1 cells stably expressing myr-HA-tagged versions of the human PI3Kdelta, PI3Kalpha, or PI3Kbeta p110 catalytic subunit isoforms, the assay was developed as a two-plate protocol in a 384-well format.
For compound testing, the cells were seeded at a density of 4000 (Rat-1_PI3Kdelta), 7500 (Rat-1_PI3Kalpha), or 6200 (Rat-1_PI3Kbeta) cells in 20 μl complete growth medium into cell culture treated 384-well plates and were grown at 37° C./5% CO2/90% humidity for 24 h. Shortly before compound transfer, the complete medium was removed, 30 μl assay buffer (DMEM high glucose, 1×MEM NEAA, 10 mM HEPES, 2 mM L-glutamine, 0.1% (w/v) BSA) was added and 10 μl of the compound predilutions were transferred to the cells.

[5] = target: T1, PI 3-kinase delta; assay: Cellular assay J1, p-Akt (S473) in Rat-1 cells, Surefire format; format: cell-based; settings: non-asterisked data: version J1 (Surefire format), Rat-1 cells; read-out: Assay J PI3Kδ IC50
Target sequence in this assay (O00329 whole entry): as the sequence (O00329 whole entry) above
Target sequence in this assay (Q63787 whole entry partner): as the sequence (Q63787 whole entry partner) above

[6] = target: Vps34 (Homo sapiens, UniProt Q8NEB9); assay: Kinase Glo Luminescent Kinase Assay (Kglo), assay C; format: biochemical; settings: read-out: Assay C VPS34 IC50
[7] = target: T3, PI 3-kinase alpha (Homo sapiens, UniProt P42336); assay: Kinase Glo Luminescent Kinase Assay (Kglo), assay A; format: biochemical; settings: read-out: Assay A PI3Kα IC50
Target sequence in this assay (P42336 whole entry): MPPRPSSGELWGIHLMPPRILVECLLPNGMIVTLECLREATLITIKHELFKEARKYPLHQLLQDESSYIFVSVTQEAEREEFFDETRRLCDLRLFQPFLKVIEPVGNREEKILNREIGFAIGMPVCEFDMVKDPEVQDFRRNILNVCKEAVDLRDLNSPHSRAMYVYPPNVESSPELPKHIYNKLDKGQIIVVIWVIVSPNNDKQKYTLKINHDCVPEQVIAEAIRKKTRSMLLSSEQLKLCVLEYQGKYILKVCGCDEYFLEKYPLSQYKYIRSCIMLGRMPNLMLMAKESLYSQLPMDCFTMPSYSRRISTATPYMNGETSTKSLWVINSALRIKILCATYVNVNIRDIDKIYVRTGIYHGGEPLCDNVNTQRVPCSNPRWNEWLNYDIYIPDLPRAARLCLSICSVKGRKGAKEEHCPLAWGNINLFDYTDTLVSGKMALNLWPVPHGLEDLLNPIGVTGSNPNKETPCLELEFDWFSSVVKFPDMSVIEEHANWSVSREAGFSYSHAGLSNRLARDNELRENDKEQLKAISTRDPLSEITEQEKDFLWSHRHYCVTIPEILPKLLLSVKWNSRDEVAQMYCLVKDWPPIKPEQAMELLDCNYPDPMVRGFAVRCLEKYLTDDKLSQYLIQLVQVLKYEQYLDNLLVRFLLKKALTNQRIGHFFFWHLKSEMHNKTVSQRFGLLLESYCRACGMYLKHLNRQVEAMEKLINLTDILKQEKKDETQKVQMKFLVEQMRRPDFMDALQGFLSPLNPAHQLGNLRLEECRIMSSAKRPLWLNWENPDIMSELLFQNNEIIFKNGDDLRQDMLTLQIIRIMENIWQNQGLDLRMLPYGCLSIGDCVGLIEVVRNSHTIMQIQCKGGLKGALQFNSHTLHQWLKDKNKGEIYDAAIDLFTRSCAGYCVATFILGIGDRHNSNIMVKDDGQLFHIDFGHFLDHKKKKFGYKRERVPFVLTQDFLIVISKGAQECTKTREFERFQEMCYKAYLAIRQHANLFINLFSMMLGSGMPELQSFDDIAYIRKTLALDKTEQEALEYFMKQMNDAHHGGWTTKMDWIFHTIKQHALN

[8] = target: T2, PI 3-kinase beta; assay: Kinase Glo Luminescent Kinase Assay (Kglo), assay B; format: biochemical; settings: read-out: Assay B PI3Kβ IC50
Target sequence in this assay (P42338 whole entry): as the sequence (P42338 whole entry) above
Target sequence in this assay (P27986 461-568 partner): as the sequence (P27986 461-568 partner) above

[9] = target: PI 4-kinase beta (Homo sapiens, UniProt Q9UBF8); assay: Kinase Glo Luminescent Kinase Assay (Kglo), assay D; format: biochemical; settings: read-out: Assay D PI4Kβ IC50
[10] = target: T3, PI 3-kinase alpha; assay: Cellular assay H1, p-Akt (S473) in Rat-1 cells, Surefire format; format: cell-based; settings: non-asterisked data: version H1 (Surefire format), Rat-1 cells; read-out: Assay H PI3Kα IC50
[11] = target: mTOR (Homo sapiens, UniProt P42345); assay: Lanthascreen kinase binding assay, assay G; settings: read-out: Assay G mTOR IC50
Protocol: Lanthascreen™ Kinase Binding Assay for mTOR (G)
Binding of an inhibitor to the kinase competes for binding with the tracer, resulting in a loss of FRET.
50 nL of compound dilutions were dispensed onto white 384-well small volume polystyrene plate.

Sequence of Vps34 (Q8NEB9 whole entry, species assumed): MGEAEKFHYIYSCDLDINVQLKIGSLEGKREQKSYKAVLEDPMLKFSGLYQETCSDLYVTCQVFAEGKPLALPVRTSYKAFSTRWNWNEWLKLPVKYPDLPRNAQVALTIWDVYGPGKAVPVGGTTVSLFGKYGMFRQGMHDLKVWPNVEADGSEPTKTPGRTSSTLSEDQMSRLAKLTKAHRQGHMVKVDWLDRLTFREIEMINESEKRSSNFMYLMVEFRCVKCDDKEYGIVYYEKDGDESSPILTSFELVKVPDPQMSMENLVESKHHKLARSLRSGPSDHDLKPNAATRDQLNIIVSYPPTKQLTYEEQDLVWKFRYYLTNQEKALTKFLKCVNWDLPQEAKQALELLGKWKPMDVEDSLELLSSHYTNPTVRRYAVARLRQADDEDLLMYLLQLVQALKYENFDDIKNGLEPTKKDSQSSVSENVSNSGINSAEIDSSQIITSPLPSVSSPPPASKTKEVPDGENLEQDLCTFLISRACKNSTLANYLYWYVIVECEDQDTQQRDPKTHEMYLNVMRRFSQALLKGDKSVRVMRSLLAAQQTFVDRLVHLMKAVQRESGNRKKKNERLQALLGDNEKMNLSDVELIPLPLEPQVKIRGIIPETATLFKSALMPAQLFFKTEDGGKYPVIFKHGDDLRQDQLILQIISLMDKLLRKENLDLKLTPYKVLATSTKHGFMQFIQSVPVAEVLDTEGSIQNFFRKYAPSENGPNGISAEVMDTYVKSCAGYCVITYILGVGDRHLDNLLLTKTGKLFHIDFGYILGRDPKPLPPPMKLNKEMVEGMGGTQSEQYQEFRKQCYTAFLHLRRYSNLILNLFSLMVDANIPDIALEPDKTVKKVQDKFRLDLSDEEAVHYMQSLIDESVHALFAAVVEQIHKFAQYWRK

| IC50 [1] [µM] | Assay M RLM CI(int) [2] [µL/min/mg] | IC50 [3] [µM] | IC50 [4] [µM] | IC50 [5] [µM] | IC50 [6] [µM] | IC50 [7] [µM] | IC50 [8] [µM] | IC50 [9] [µM] | IC50 [10] [µM] | IC50 [11] [µM] | Structure (SMILES) |
| --- | --- | --- | --- | --- | --- | --- | --- | --- | --- | --- | --- |
| 1 | 34 | 0.27 | > 10 | > 10 | > 10 | 1 | 6 | > 10 | > 10 | – | Cc1ccc(S(=O)(=O)NCC(C)(C)O)cc1-c1cnc(N)c(-c2cnn(CCN(C)C)c2)n1 [Example 142, 3-(5-Amino-6-(1-(2-(dimethylamino)ethyl)-1H-pyrazol-4-yl)pyrazin-2-yl)-N-(2-hydroxy-2-methylpropyl)-4-methylbenzenesulfonamide] |
| 0.58 | – | 0.248 | 4.48 | 1.3 | > 9.1 | 0.49 | 8.04 | 8.19 | 1.32 | > 9.1 | Cc1ccc(S(=O)(=O)NCCC(C)(C)O)cc1-c1cnc(N)c(-c2ccc(F)nc2)n1 [Example 119.18] |
| 0.53 | – | 0.157 | > 10 | > 10 | > 9.1 | 0.57 | 1.93 | 2.19 | 4.41 | 2.34 | Cc1ccc(S(=O)(=O)NCCC(C)(C)O)cc1-c1cnc(N)c(-c2c[nH]nc2C)n1 [Example 119.22] |
| 2.18 | – | 0.401 | > 10 | 7.48 | > 9.1 | 1.73 | > 9.1 | 3.83 | 5.16 | > 9.1 | Cc1ccc(S(=O)(=O)NCCC(C)(C)O)cc1-c1cnc(N)c(-c2ccc(N3CCOCC3)nc2)n1 [Example 119.21] |
| 2.54 | – | 0.362 | 6.17 | 7.16 | > 9.1 | 1.45 | > 9.1 | 1.56 | 2.81 | > 9.1 | Cc1ccc(S(=O)(=O)NCCC(C)(C)O)cc1-c1cnc(N)c(-c2ccc(N3CCCC3)nc2)n1 [Example 119.17] |
| 1.67 | – | 0.761 | 9.22 | 3.17 | > 9.1 | 1.09 | > 9.1 | 3.4 | 2.6 | 9.02 | Cc1ccc(S(=O)(=O)NCCC(C)(C)O)cc1-c1cnc(N)c(-c2ccc(OC3CCOCC3)nc2)n1 [Example 119.24] |
| 0.35 | – | 0.055 | > 10 | > 10 | > 9.1 | 0.4 | 4.33 | 7.17 | > 10 | > 9.1 | Cc1cc(-c2nc(-c3cc(S(=O)(=O)NC4CCNC(=O)C4)ccc3C)cnc2N)ccn1 (stereo not drawn) [Example 134, 3-(5-Amino-6-(2-methylpyridin-4-yl)pyrazin-2-yl)-4-methyl-N-(2-oxopiperidin-4-yl)benzenesulfonamide] |
| > 9.1 | – | 3.47 | > 10 | > 10 | > 9.1 | > 9.1 | > 9.1 | > 9.1 | > 10 | > 9.1 | Cc1ccc(S(=O)(=O)NCCC(C)(C)O)cc1-c1cnc(N)c(-c2cnn(C)c2C)n1 [Example 119.19] |
| 2.04 | – | 0.525 | 8.49 | 3.53 | > 9.1 | 1.34 | > 9.1 | 0.94 | 1.97 | 7.6 | Cc1ccc(S(=O)(=O)NCCC(C)(C)O)cc1-c1cnc(N)c(-c2ccc(N3CCCCC3)nc2)n1 [Example 119.23] |

Further lines, the compound ahead of its results:

| Structure (SMILES) | IC50 [1] [µM] | Assay M RLM CI(int) [2] [µL/min/mg] | IC50 [3] [µM] | IC50 [4] [µM] | IC50 [5] [µM] | IC50 [6] [µM] | IC50 [7] [µM] | IC50 [8] [µM] | IC50 [9] [µM] | IC50 [10] [µM] | IC50 [11] [µM] |
| --- | --- | --- | --- | --- | --- | --- | --- | --- | --- | --- | --- |
| Cc1ccc(S(=O)(=O)NCCC(C)(C)O)cc1-c1cnc(N)c(-c2ccncc2F)n1 [Example 119.11] | 1.1 | – | 0.303 | 3.56 | 6.94 | > 9.1 | 0.45 | > 9.1 | > 9.1 | 2.54 | > 9.1 |
| COc1ncccc1-c1nc(-c2cc(S(=O)(=O)NCCC(C)(C)O)ccc2C)cnc1N [Example 119.4] | 5.7 | – | 3.12 | > 10 | > 10 | > 9.1 | 2.83 | > 9.1 | > 9.1 | > 10 | > 9.1 |
| Cc1ccc(S(=O)(=O)NCCC(C)(C)O)cc1-c1cnc(N)c(-c2ccoc2)n1 [Example 119.15] | 0.96 | – | 0.162 | 7.33 | 1.65 | > 9.1 | 1.66 | 8.81 | 4.86 | 1.48 | > 9.1 |
| Cc1ccc(S(=O)(=O)NCCC(C)(C)O)cc1-c1cnc(N)c(-c2cc(C(F)(F)F)nn2C)n1 [Example 119, 3-(5-Amino-6-(1-methyl-3-(trifluoromethyl)-1H-pyrazol-5-yl)pyrazin-2-yl)-N-(3-hydroxy-3-methylbutyl)-4-methylbenzenesulfonamide] | 0.71 | – | 0.118 | 3.06 | 1.76 | > 9.1 | 0.6 | > 9.1 | > 9.1 | 1.64 | 4.31 |
| Cc1cncc(-c2nc(-c3cc(S(=O)(=O)NCCC(C)(C)O)ccc3C)cnc2N)c1 [Example 119.7] | 0.72 | – | 0.278 | 4.05 | 5.93 | > 9.1 | 2.98 | > 9.1 | 7.96 | 6.97 | 4.32 |
| COc1ccc(-c2nc(-c3cc(S(=O)(=O)NCCC(C)(C)O)ccc3C)cnc2N)c(C)n1 [Example 119.14] | 1.44 | – | 0.667 | 4.39 | 4.96 | > 9.1 | 1.16 | > 9.1 | 7.35 | 3.14 | 8.53 |
| Cc1ccc(S(=O)(=O)NOC(C)C)cc1-c1cnc(N)c(-n2cncn2)n1 [Example 112.3, 3-(5-Amino-6-(1H-1,2,4-triazol-1-yl)pyrazin-2-yl)-N-isopropoxy-4-methylbenzenesulfonamide] | 0.26 | 123 | – | > 3 | 0.86 | > 10 | 0.36 | 1.1 | 1.2 | 0.4 | 1.36 |
| Cc1ccc(S(=O)(=O)NOCC(C)C)cc1-c1cnc(N)c(-n2cncn2)n1 [Example 112.4, 3-(5-Amino-6-(1H-1,2,4-triazol-1-yl)pyrazin-2-yl)-N-isobutoxy-4-methylbenzenesulfonamide] | 0.19 | – | 0.093 | > 3 | 0.4 | > 10 | 0.08 | 0.56 | 1.1 | 0.07 | > 10 |
| Cc1ccc(S(=O)(=O)NCCC(C)(C)O)cc1-c1cnc(N)c(-c2cccnc2F)n1 [Example 119.1] | 2.3 | – | 1 | 3.81 | 2.82 | > 9.1 | 0.61 | > 9.1 | 6.2 | 2.69 | 4.91 |
| Cc1ncc(S(=O)(=O)NCC(C)(C)O)cc1-c1cnc(N)c(-n2cncn2)n1 [Example 53, 5-(5-Amino-6-(1H-1,2,4-triazol-1-yl)pyrazin-2-yl)-N-(2-hydroxy-2-methylpropyl)-6-methylpyridine-3-sulfonamide] | 3.7 | 29 | 0.69 | > 10 | > 10 | > 10 | 1.7 | 7 | > 10 | > 10 | – |
| Cc1ccc(S(=O)(=O)NCCC(C)(C)O)cc1-c1cnc(N)c(-c2cnc(Cl)cc2C)n1 [Example 119.9] | 0.9 | – | 0.178 | 3.07 | 4.23 | > 9.1 | 0.33 | 7.78 | 0.69 | 1.92 | > 9.1 |
| Cc1ccc(S(=O)(=O)NCCC(C)(C)O)cc1-c1cnc(N)c(-c2cc(Cl)cnc2F)n1 [Example 119.8] | 0.2 | – | 0.167 | 4.64 | 5.2 | > 9.1 | 1.05 | > 9.1 | 4.53 | 3.85 | 5.94 |

From US10004732B2 (Novartis AG, priority 2014, dated 2018)
